Measured values taken from ChEMBL document CHEMBL3244191, “Study of the structural requirements for dopa potentiation and oxotremorine antagonism by L-prolyl-L-leucylglycinamide” (J Med Chem, 1978).
The source made the active and inactive calls. The calls are words filed in the database; no cut-off is given here. Square brackets hold non-standard residues; d marks the D form. Peptide text beside a SMILES is read from it. azaGly = NNC(=O)O; βAla = NCCC(=O)O

Experiments:
Assay type in all cases: functional, organism-based
[1] = system: Mus musculus; test: Suppression of oxotremorine-induced tremor in ICR mouse at 20 mg/kg, ip pretreated for 1 hr followed by oxotremorine-challenge; set-up: dose 20 mg/kg
[2] = system: Mus musculus; test: Potentiation of dl-DOPA-induced behavioral effects in ICR mouse assessed as moderate piloerection, salivation, marked increased motor activity and irritability at 10 mg/kg, ip administered 1 hr prior to dl-DOPA-challenge measured for 1 hr; set-up: dose 10 mg/kg
[3] = system: Mus musculus; test: Potentiation of dl-DOPA-induced behavioral effects in ICR mouse assessed as moderate piloerection, salivation, marked increased motor activity and irritability at 2.5 mg/kg, ip administered 1 hr prior to dl-DOPA-challenge measured for 1 hr; set-up: dose 2.5 mg/kg
[4] = system: Mus musculus; test: Potentiation of dl-DOPA-induced behavioral effects in ICR mouse assessed as slight piloerection, slight salivation and slight increased motor activity at 2.5 mg/kg, ip administered 1 hr prior to dl-DOPA-challenge measured for 1 hr; set-up: dose 2.5 mg/kg
[5] = system: Mus musculus; test: Potentiation of dl-DOPA-induced behavioral effects in ICR mouse assessed as slight piloerection, slight salivation and slight increased motor activity at 10 mg/kg, ip administered 1 hr prior to dl-DOPA-challenge measured for 1 hr; set-up: dose 10 mg/kg
[6] = system: Mus musculus; test: Suppression of oxotremorine-induced tremor in ICR mouse at 10 mg/kg, ip pretreated for 1 hr followed by oxotremorine-challenge; set-up: dose 10 mg/kg
[7] = system: Mus musculus; test: Suppression of oxotremorine-induced tremor in ICR mouse at 1 mg/kg, ip pretreated for 1 hr followed by oxotremorine-challenge; set-up: dose 1 mg/kg
[8] = system: Mus musculus; test: Potentiation of dl-DOPA-induced behavioral effects in ICR mouse assessed as marked piloerection, profuse salivation, marked increased irritability and reactivity, jumping, squeaking and aggressive fighting at 10 mg/kg, ip administered 1 hr prior to dl-DOPA-challenge measured for 1 hr; set-up: dose 10 mg/kg
[9] = system: Mus musculus; test: Potentiation of dl-DOPA-induced behavioral effects in ICR mouse assessed as marked piloerection, profuse salivation, marked increased irritability and reactivity, jumping, squeaking and aggressive fighting at 0.1 mg/kg, ip administered 1 hr prior to dl-DOPA-challenge measured for 1 hr; set-up: dose 0.1 mg/kg
[10] = system: Mus musculus; test: Potentiation of dl-DOPA-induced behavioral effects in ICR mouse assessed as marked piloerection, profuse salivation, marked increased irritability and reactivity, jumping, squeaking and aggressive fighting at 1 mg/kg, ip administered 1 hr prior to dl-DOPA-challenge measured for 1 hr; set-up: dose 1 mg/kg
[11] = system: Mus musculus; test: Suppression of oxotremorine-induced tremor in ICR mouse at 4 mg/kg, ip pretreated for 1 hr followed by oxotremorine-challenge; set-up: dose 4 mg/kg

In the case of `CC(=O)CNC(=O)[C@H](CC(C)C)NC(=O)[C@@H]1CCCN1`, the Activity [1] is reported as “inactive”, the Activity [2] is reported as “Active” and the Activity [3] is reported as “Active”.
In the case of `CC(C)C[C@H](NC(=O)C1CCCC1)C(=O)NCC(N)=O`, the Activity [1] is reported as “inactive”, the Activity [2] is reported as “Active” and the Activity [4] is reported as “Active”.
`CC(C)C[C@H](NC(=O)[C@@H]1CCCN1)C(=O)N1CSC[C@@H]1C(N)=O` was tested, and the Activity [1] was “inactive” and the Activity [5] was “Active”.
`CC(C)C[C@H](NC(=O)[C@@H]1CCCN1)C(=O)NCC#N` was tested, and the Activity [1] was “inactive”, the Activity [2] was “Active” and the Activity [4] was “Active”.
For `CC(C)C[C@H](NC(=O)[C@H]1CSCN1)C(=O)NCC(N)=O`, the Activity [1] was “inactive”, the Activity [6] was “inactive” and the Activity [5] was “Active”.
For `CC(C)C[C@H](NC(=O)[C@@H]1CCCN1)C(=O)NCC(N)=O` (H-Pro-Leu-Gly-NH2), the Activity [1] was “Active”, the Activity [7] was “inactive” and the Activity [8] was “Active”. The Activity [9] was “Active”, the Activity [10] was “Active” and the Activity [11] was “Active”.
For `CNC(=O)CNC(=O)[C@H](CC(C)C)NC(=O)[C@@H]1CCCN1` (H-Pro-Leu-Gly-NHMe), the Activity [1] was “inactive” and the Activity [5] was “Active”.
`CC(C)C[C@H](NC(=O)[C@@H]1CCCN1)C(=O)N1CCC[C@H]1C(N)=O` (H-Pro-Leu-Pro-NH2) was tested, and the Activity [1] was “Active”, the Activity [6] was “inactive” and the Activity [5] was “Active”.
In the case of `CC(C)C[C@H](NC(=O)[C@@H]1CCCN1)C(=O)NNC(N)=O` (H-Pro-Leu-[azaGly]-NH2), the Activity [1] is reported as “inactive” and the Activity [5] is reported as “Active”.
For `CC(C)C[C@H](NC(=O)[C@@H]1CCCN1)C(=O)NCCC(N)=O` (H-Pro-Leu-[βAla]-NH2), the Activity [1] was “inactive” and the Activity [5] was “Active”.
With `CC(C)C[C@H](NC(=O)[C@@H]1CCCN1)C(=O)N1CCSC1C(N)=O` (single isomer, unassigned; (-)) the Activity [1] was “inactive”, the Activity [2] was “Active” and the Activity [4] was “Active”.
For `CC(C)C[C@H](NC(=O)[C@@H]1CCCN1)C(=O)N1CCSC1C(N)=O` (stereo in doubt; 9), the Activity [1] was “inactive” and the Activity [5] was “Active”.
